In ChEMBL document CHEMBL4219138, “Discovery of N-aryl-N'-pyrimidin-4-yl ureas as irreversible L858R/T790M mutant selective epidermal growth factor receptor inhibitors” (Bioorg Med Chem Lett, 2018):

Key:
[1] = test system: NCI-H1975; experiment: Antiproliferative activity against human NCI-H1975 cells harboring EGFR L858R/T790M mutant after 72 hrs by MTT assay; format: functional, cell-based; settings: NCI-H1975, 72 h
[2] = test system: A-431; experiment: Antiproliferative activity against human A431 cells harboring wild-type EGFR after 72 hrs by MTT assay; format: functional, cell-based; settings: A-431, 72 h
[3] = target: T1, Epidermal growth factor receptor (Homo sapiens, UniProt P00533, L858R/T790M); experiment: Inhibition of EGFR L858R/T790M mutant phosphorylation in human NCI-H1975 cells after 1 hr by ELISA; format: cell-based
T1 sequence (P00533 25-1210 T790M/L858R limits assumed): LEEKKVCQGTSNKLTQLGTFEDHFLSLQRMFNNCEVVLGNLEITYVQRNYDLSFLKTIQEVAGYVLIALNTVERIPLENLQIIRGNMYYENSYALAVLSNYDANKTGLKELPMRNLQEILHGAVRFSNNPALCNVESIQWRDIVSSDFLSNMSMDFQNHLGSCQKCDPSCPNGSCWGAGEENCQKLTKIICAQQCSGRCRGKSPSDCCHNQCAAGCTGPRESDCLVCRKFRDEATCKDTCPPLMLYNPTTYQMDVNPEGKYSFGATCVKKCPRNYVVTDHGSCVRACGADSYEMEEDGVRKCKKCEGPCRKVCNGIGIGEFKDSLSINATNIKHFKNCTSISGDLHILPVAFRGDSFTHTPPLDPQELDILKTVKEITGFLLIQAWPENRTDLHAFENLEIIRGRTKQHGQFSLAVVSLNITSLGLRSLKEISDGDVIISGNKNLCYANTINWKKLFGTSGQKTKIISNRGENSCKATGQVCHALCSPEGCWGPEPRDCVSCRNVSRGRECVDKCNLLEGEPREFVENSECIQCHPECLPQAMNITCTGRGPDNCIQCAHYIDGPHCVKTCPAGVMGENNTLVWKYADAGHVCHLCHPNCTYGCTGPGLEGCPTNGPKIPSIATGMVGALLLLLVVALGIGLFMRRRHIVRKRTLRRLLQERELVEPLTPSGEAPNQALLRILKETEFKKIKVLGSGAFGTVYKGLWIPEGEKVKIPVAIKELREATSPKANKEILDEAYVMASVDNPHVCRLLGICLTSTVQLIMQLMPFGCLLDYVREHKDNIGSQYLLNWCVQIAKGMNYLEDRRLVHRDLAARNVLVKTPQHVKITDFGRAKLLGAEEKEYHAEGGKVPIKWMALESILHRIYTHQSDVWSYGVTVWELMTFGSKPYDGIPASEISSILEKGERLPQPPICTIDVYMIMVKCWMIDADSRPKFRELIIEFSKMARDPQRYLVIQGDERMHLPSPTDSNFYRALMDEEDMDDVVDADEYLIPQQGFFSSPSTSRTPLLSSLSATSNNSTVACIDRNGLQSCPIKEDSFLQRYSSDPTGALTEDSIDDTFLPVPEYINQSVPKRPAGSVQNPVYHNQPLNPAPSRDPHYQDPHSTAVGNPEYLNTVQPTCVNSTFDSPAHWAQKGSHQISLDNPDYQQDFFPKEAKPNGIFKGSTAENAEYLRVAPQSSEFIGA

[4] = target: T2, Epidermal growth factor receptor (Homo sapiens, UniProt P00533); experiment: Inhibition of recombinant human GST-tagged wild-type EGFR cytoplasmic domain (668 to 1210 residues) expressed in baculovirus expression system using tyrosine04 peptide as substrate after 60 mins in presence of ATP by Z-LYTE assay
T2 sequence (P00533 whole entry, the tested form may be a part): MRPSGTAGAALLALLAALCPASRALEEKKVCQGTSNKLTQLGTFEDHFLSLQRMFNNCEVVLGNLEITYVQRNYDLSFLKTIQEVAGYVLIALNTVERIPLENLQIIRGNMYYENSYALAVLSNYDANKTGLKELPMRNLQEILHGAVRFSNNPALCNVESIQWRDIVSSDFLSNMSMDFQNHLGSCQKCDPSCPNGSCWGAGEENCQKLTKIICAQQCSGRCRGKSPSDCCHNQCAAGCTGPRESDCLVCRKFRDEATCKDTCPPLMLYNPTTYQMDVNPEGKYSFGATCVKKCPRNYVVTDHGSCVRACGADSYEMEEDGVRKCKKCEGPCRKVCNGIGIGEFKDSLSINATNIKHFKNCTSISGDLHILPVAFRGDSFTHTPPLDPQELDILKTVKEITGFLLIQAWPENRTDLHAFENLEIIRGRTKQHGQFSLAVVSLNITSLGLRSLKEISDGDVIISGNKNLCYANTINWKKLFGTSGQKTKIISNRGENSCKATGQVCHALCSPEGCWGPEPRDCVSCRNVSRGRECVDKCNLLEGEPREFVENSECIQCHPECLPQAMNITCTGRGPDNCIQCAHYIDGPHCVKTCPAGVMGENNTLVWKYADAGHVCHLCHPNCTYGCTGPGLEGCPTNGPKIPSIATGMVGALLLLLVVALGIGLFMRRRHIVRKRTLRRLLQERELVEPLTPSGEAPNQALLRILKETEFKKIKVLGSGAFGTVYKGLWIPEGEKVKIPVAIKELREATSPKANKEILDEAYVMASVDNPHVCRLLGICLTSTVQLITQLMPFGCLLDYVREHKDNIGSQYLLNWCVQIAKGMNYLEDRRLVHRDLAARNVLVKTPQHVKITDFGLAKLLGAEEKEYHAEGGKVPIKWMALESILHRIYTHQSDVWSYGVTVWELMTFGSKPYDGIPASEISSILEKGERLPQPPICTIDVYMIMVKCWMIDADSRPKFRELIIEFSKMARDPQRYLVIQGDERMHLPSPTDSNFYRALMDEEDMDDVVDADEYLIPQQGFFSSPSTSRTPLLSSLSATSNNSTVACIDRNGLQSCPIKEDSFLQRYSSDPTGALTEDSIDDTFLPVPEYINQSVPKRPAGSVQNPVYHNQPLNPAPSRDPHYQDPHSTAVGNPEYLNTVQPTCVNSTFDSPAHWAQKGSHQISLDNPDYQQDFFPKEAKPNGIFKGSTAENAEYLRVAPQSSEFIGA

[5] = target: T1, Epidermal growth factor receptor; experiment: Inhibition of recombinant human GST-tagged EGFR L858R/T790M mutant cytoplasmic domain (668 to 1210 residues) expressed in baculovirus expression system using tyrosine04 peptide as substrate after 60 mins in presence of ATP by Z-LYTE assay
[6] = target: T2, Epidermal growth factor receptor; experiment: Inhibition of wild-type EGFR phosphorylation in human A431 cells preincubated for 1 hr followed by EGF stimulation measured after 45 mins by ELISA; format: cell-based
[7] = Selectivity ratio of IC50 for human A431 cells harboring wild-type EGFR to IC50 for human NCI-H1975 cells harboring EGFR L858R/T790M mutant; format: functional

| Compound | IC50 [1] | IC50 [2] | IC50 [3] | IC50 [4] | IC50 [5] | IC50 [6] | Ratio IC50 [7] |
| --- | --- | --- | --- | --- | --- | --- | --- |
| C=CC(=O)Nc1cccc(Oc2nc(Nc3ccc(N4CCN(C)CC4)cc3OC)ncc2Cl)c1 | 27 nM | 1240 nM | – | – | – | – | – |
| C=CC(=O)Nc1cccc(Oc2nc(Nc3ccc(N4CCN(C(C)=O)CC4)cc3OC)ncc2C(F)(F)F)c1 | 117 nM | 2530 nM | 132 nM | 67 nM | 7 nM | 1030 nM | – |
| C=CC(=O)Nc1cccc(NC(=O)N(C)c2ccnc(Nc3ccc(N4CCN(C)CC4)cc3OC)n2)c1 | – | – | – | > 1000 nM | > 1000 nM | – | – |
| C=CC(=O)Nc1cccc(NC(=O)Nc2ccnc(Nc3ccc(N4CCC(N5CCN(C)CC5)CC4)cc3OC)n2)c1 | 106 nM | – | 105 nM | 80 nM | 5 nM | 2340 nM | – |
| C=CC(=O)Nc1cccc(NC(=O)Nc2ccnc(Nc3ccc(N4CCC(N(C)C)CC4)cc3OC)n2)c1 | 107 nM | 3380 nM | 82 nM | 45 nM | 2 nM | 1540 nM | – |
| C=CC(=O)Nc1cccc(NC(=O)Nc2ccnc(Nc3ccc(N(C)CCN(C)C)cc3OC)n2)c1 | 502 nM | 3400 nM | 430 nM | 49 nM | 19 nM | 1700 nM | – |
| C=CC(=O)Nc1cccc(NC(=O)Nc2ccnc(Nc3ccc(N(C)C)cc3)n2)c1 | – | – | – | 462 nM | 170 nM | – | – |
| C=CC(=O)Nc1cccc(NC(=O)Nc2ccnc(Nc3ccc(C4CCN(C)CC4)cc3)n2)c1 | – | – | – | > 1000 nM | 510 nM | – | – |
| C=CC(=O)Nc1cccc(NC(=O)Nc2ccnc(Nc3ccc(N4CCC(N5CCOCC5)CC4)cc3OC)n2)c1 | 37 nM | > 10000 nM | 41 nM | 86 nM | 4 nM | 6460 nM | >270 |
| C=CC(=O)Nc1cccc(NC(=O)Nc2ccnc(Nc3ccc(C(=O)N4CCN(C)CC4)cc3OC)n2)c1 | – | – | – | 972 nM | 215 nM | – | – |
| C=CC(=O)Nc1cccc(NC(=O)Nc2nc(Nc3ccc(N4CCC(N5CCOCC5)CC4)cc3OC)ncc2C(F)(F)F)c1 | – | – | – | > 1000 nM | 270 nM | – | – |
| C=CC(=O)Nc1cccc(NC(=O)Nc2ccnc(Nc3ccc(C4CCN(C)CC4)cc3OC)n2)c1 | 75 nM | > 10000 nM | 130 nM | 273 nM | 28 nM | 5000 nM | – |
| C=CC(=O)Nc1cccc(NC(=O)Nc2nc(Nc3ccc(N4CCC(N5CCOCC5)CC4)cc3OC)ncc2Cl)c1 | 199 nM | 2590 nM | 131 nM | 641 nM | 37 nM | 2210 nM | – |
| C=CC(=O)Nc1cccc(NC(=O)C(C)(C)c2ccnc(Nc3ccc(N4CCN(C)CC4)cc3OC)n2)c1 | – | – | – | > 1000 nM | > 1000 nM | – | – |
| C=CC(=O)Nc1cccc(NC(=O)Nc2ccnc(Nc3ccc(N4CCOCC4)cc3OC)n2)c1 | 173 nM | – | 218 nM | 225 nM | 15 nM | > 10000 nM | – |
| C=CC(=O)Nc1cccc(NC(=O)Nc2ccnc(Nc3ccc(N4CCN(C)CC4)cc3)n2)c1 | 1930 nM | – | 3150 nM | 143 nM | 48 nM | – | – |
| C=CC(=O)Nc1cccc(NC(=O)Nc2ccnc(Nc3ccc(N4CCOCC4)cc3)n2)c1 | 7520 nM | > 10000 nM | > 10000 nM | 644 nM | 87 nM | > 10000 nM | – |
| C=CC(=O)Nc1cccc(NC(=O)Nc2ccnc(Nc3ccccc3OC)n2)c1 | – | – | – | > 1000 nM | 192 nM | – | – |
| C=CC(=O)Nc1cccc(NC(=O)Nc2ccnc(Nc3ccc(N4CCN(CCF)CC4)cc3OC)n2)c1 | 519 nM | – | 511 nM | 158 nM | 22 nM | > 10000 nM | – |
| C=CC(=O)Nc1cccc(NC(=O)Nc2ccnc(Nc3ccc(OC)cc3OC)n2)c1 | 467 nM | – | 391 nM | 348 nM | 58 nM | – | – |
| C=CC(=O)Nc1cccc(NC(=O)Nc2ccnc(Nc3ccc(OCCOC)cc3)n2)c1 | – | – | – | > 1000 nM | 266 nM | – | – |
| C=CC(=O)Nc1cccc(NC(=O)Nc2ccnc(Nc3ccc(N4CCC(N(CC)CC)CC4)cc3OC)n2)c1 | 31 nM | 2010 nM | – | – | – | – | – |
| C=CC(=O)NC1CCCN(C(=O)Nc2ccnc(Nc3ccc(N4CCN(C)CC4)cc3OC)n2)C1 (centres undefined) | – | – | – | > 1000 nM | > 1000 nM | – | – |
| C=CC(=O)Nc1cccc(NC(=O)Nc2ccnc(Nc3ccc(N4CCN(C)CC4)cc3OC)n2)c1 | 525 nM | – | 906 nM | 17 nM | 17 nM | – | – |
| C=CC(=O)Nc1cccc(NC(=O)Nc2ccnc(Nc3ccc(C(=O)N4CCOCC4)cc3OC)n2)c1 | – | – | – | > 1000 nM | 128 nM | – | – |
| C=CC(=O)Nc1cccc(NC(=O)Nc2ccnc(Nc3ccc(N(CC)CC)cc3OC)n2)c1 | 86 nM | > 10000 nM | 112 nM | 183 nM | 12 nM | > 10000 nM | – |
| C=CC(=O)Nc1cccc(NC(=O)C2(C(=O)Nc3ccnc(Nc4ccc(N5CCN(C)CC5)cc4OC)n3)CC2)c1 | – | – | – | > 1000 nM | > 1000 nM | – | – |
